Results published in patent US20080113962A1, “Condensed Tricyclic Benzimidazoles For the Treatment of Gastrointestinal Disorders” (Aitana Pharma AG, priority 2004, published 2008).

Tests used:
[1] = system: pentagastrin-stimulated acid secretion of the perfused rat stomach; test: Secretion-inhibiting action on the perfused rat stomach (pentagastrin-stimulated acid secretion); type: in vivo; settings: anesthetized CD rat, dose 3.0 μmol/kg i.d. (intraduodenal)
Text: Testing of the Secretion-Inhibiting Action on the Perfused Rat Stomach
In Table A which follows, the influence of the compounds of the formula 1 according to the invention on the pentagastrin-stimulated acid secretion of the perfused rat stomach after intraduodenal administration in vivo is shown.
The abdomen of anesthetized rats (CD rat, female, 200-250 g; 1.5 g/kg i.m. urethane) was opened after tracheotomy by a median upper abdominal incision and a PVC catheter was fixed transorally in the esophagus and another via the pylorus such that the ends of the tubes just projected into the gastric lumen. The catheter leading from the pylorus led outward into the right abdominal wall through a side opening.
After thorough rinsing (about 50-100 ml), warm (37° C.) physiological NaCl solution was continuously passed through the stomach (0.5 ml/min, pH 6.8-6.9; Braun-Unita I). The pH (pH meter 632, glass electrode EA 147; φ=5 mm, Metrohm) and, by titration with a freshly prepared 0.01N NaOH solution to pH 7 (Dosimat 665 Metrohm), the secreted HCl were determined in the effluent in each case collected at an interval of 15 minutes.
The gastric secretion was stimulated by continuous infusion of […] (=1.65 ml/h) of i.v. pentagastrin (left femoral vein) about 30 min after the end of the operation (i.e. after determination of 2 preliminary fractions). […]

Structure (SMILES) | melting point [°C] | Inhibition of acid secretion [1] [%]
Cc1nc2c3c(ccc2n1C)[C@H](O)C[C@H](c1ccccc1)O3 (relative stereo) [Example 1, cis-2,3-Dimethyl-8-phenyl-3,6,7,8-tetrahydro-chromeno[7,8-d]imidazol-6-ol] | 228 to 229 | –
CCOC1CC(c2ccccc2)Oc2c1ccc1c2nc(C)n1C (stereo not shown) [Example 3, 6-(2-Ethoxy)-2,3-dimethyl-8-phenyl-3,6,7,8-tetrahydro-chromeno[7,8-d]imidazole] | 177 to 178 | –
COCCOC1CC(c2ccccc2)Oc2c1ccc1c2nc(C)n1C (stereo not shown) [Example 2, 6-(2-Methoxy-ethoxy)-2,3-dimethyl-8-phenyl-3,6,7,8-tetrahydro-chromeno[7,8-d]imidazole] | 148 to 149 | >50
